Tests used:
Assay type in all cases: functional
[1] = system: Kluyveromyces marxianus; experiment: Antifungal activity against Candida kefyr by micro-broth dilution method
[2] = system: Candida tropicalis; experiment: Antifungal activity against Candida tropicalis by micro-broth dilution method
[3] = system: Candida parapsilosis; experiment: Antifungal activity against Candida parapsilosis by micro-broth dilution method; settings: Lodderomyces parapsilosis
[4] = system: Candida albicans; experiment: Antifungal activity against Candida albicans Y0109 after 24 hrs by micro-broth dilution method; settings: Y0109, 24 h
[5] = system: Cryptococcus neoformans; experiment: Antifungal activity against Cryptococcus neoformans BLS108 after 72 hrs by micro-broth dilution method; settings: BLS108, 72 h
[6] = system: Candida albicans; experiment: Antifungal activity against Candida albicans SC5314 after 24 hrs by micro-broth dilution method; settings: SC5314, 24 h
[7] = system: Trichophyton rubrum; experiment: Antifungal activity against Trichophyton rubrum by micro-broth dilution method
[8] = system: Aspergillus fumigatus; experiment: Antifungal activity against Aspergillus fumigatus by broth microdilution method

Measured: MIC80

C[C@@H](c1ncncc1F)[C@](O)(Cn1cncn1)c1ccc(F)cc1F [VORICONAZOLE]
15.6 ng/mL: [7]
3.9 ng/mL: [1] | [2] | [3] | [4] | [5] | [6] | [8]

Source: ChEMBL document CHEMBL1795319, “Design, synthesis and antifungal evaluation of 1-(2-(2,4-difluorophenyl)-2-hydroxy-3-(1H-1,2,4-triazol-1-yl)propyl)-1H-1,2,4-triazol-5(4H)-one” (2011)
